These results are taken from patent publication US20080070875A1, “Acne treatment compositions and methods of use” (priority 2006, published 2008).

Where two headings read alike, the source gives them in different places. A value given as a limit tells only on which side of the number the result lay.

The subject of the assay is P. acnes (MicroBiologics, ATCC #11827). The experiment in a line: Minimal inhibitory concentration (MIC) against P. acnes, serial dilution in thioglycollate broth. The format is cell-based, Propionbacterium acnes. Conditions: for MIC: Cutibacterium acnes. As for the experimental part:
The objective of this example was to establish the minimal inhibitory concentration (MIC) of quercetin (Q), rosmarinic acid (RA), triclosan (T) and salicylic acid (SA) towards the bacterium P. acnes. Combinations of quercetin with rosmarinic acid 1:1 (Q+RA) and quercetin with salicylic acid (1:1) (Q+SA) were also tested.
The following methods were used in this example. P. acnes (MicroBiologics, ATCC #11827, batch #419697) was inoculated at 3 different dilutions and grown on blood agar plates for 3 days in anaerobic condition at 37 C. About 10 colonies were than suspended in thioglycollate broth in order to achieve the density equivalent to 0.5 McFarland standard. Test materials were dissolved in the thioglycollate broth at following concentrations:
The antimicrobial effect of the test samples was assayed by making serial dilutions for each material or the 1:1 combination thereof, followed by anaerobic incubation with bacterial agent in thioglycollate brothin a 96 well plate, at the initial density of 5×10^5 CFU/ml (0.001 McFarland standard). MIC was determined visually after 84 hours and confirmed by spectrophotometry at 405 nm with the BioRad 3550-UV microplate reader, using media with respective test materials without bacteria for background subtraction.

Setting [1] is: ATCC11827, anaerobic incubation in thioglycollate broth, 84 hours, visual, confirmed at 405 nm, read-out: MIC.
[2] abbreviates: anaerobic incubation in thioglycollate broth, 84 hours.

For orientation: MIC means the least concentration at which growth counts as inhibited.

As for `O=C(/C=C/c1ccc(O)c(O)c1)O[C@H](Cc1ccc(O)c(O)c1)C(=O)O` [RA], the MIC under setting [1] was found to be 30 µg/mL. Under setting [2], the “MIC (%)” value was 0.003%. For the same compound, where the note is “result in words”, the “activity towards inhibiting P. acnes” value is on record as “significant activity”.
On to `Oc1cc(Cl)ccc1Oc1ccc(Cl)cc1Cl` [T, triclosan, reference compound], for which the MIC (ATCC11827, 84 h) was found to be 400 µg/mL. Also, the “MIC (%)” value under setting [2] came to 0.4%.
Take `O=C(O)c1ccccc1O` [SA, 2-Hydroxybenzoic acid, reference compound]: the MIC under setting [1] was greater than 2000 µg/mL. For the same compound, the “MIC (%)” value under setting [2] was determined as 2%.
For the compound `O=c1c(O)c(-c2ccc(O)c(O)c2)oc2cc(O)cc(O)c12` [Q, 2-(3,4-dihydroxyphenyl)-3,5,7-trihydroxy-4H-1-benzopyran-4-one], the MIC under setting [1] worked out at 30 µg/mL. Further, the “MIC (%)” value under setting [2] amounted to 0.003%. Under “in the presence of salicylic acid (1:1), result in words”, the “activity towards inhibiting P. acnes in the presence of salicylic acid” value is “maintained activity”. Also, where the note is “result in words”, the “activity towards inhibiting P. acnes” value is listed as “significant activity”.
